Format in all cases: in vivo, Male Wistar rats
The subject of experiment [1] is hypertriglyceridemia caused by fructose. Briefly: Test A: decrease of triglycerides content in the serum of rats due to hypertriglyceridemia caused by fructose. The settings on record: for change in vivo at 50 mg/kg: Rattus norvegicus, po, 72 h, read-out: ΔTGhematic (percent decrease of the hematic triglycerides); for change in vivo at 50 mg/kg / ΔTGhematic (percent decrease of the hematic triglycerides): 50 mg/Kg/os/die, three days, fructose diet; for ED50, Test diet of fructose: Table 3, oral. An excerpt:
(A) Determination of the decrease of triglycerides content in the serum of rats due to hypertriglyceridemia caused by fructose.
Male Wistar rats weighing 260±20 g, normally fed, subdivided in groups of 6 animals each, are used. The test lasts three days: in the first day the animals are normally fed but are kept without drinking water; in the second and third day they receive a 20% (w/v) water solution of fructose instead of water; moreover in the second day they are fed by means of a gastric probe with further 4 ml of 50% (w/v) aqueous solution of fructose. […] The animals are sacrificed undr ethereal anaesthesia 4 hours after the treatment of the third day and the blood is drawn by an intracardiacal injection.
The percent decrease of the hematic triglycerides due to the treatment with the compound to be tested is expressed as ΔTGhematic and is represented by the following formula: [formula] TG=triglycerides.

In experiment [2] the test system is hypertriglyceridemia caused by ethanol. Briefly: Test C: decrease of triglycerides content in the serum of rats based on hypertriglyceridemia caused by ethanol. As to conditions: Table 3, oral, ethanol in drinking water. An excerpt:
(C) Determination of the decrease of triglycerides content in the serum of rats based on hypertriglyceridemia caused by ethanol. Male Wistar rats weighing 260±20 g, normally fed, are subdivided in experimental groups of 10 animals each: (1) control group, normally fed; (2) diet group, given drinking water containing 10% (v/v) of ethanol since the second day; (3) treated group, given drinking water containing 10% (v/v) of ethanol and treated with the compounds to be tested from the second day. At the beginning of the fourth day, after 18 hours of fast, the animals are sacrificed under ethereal anaesthesia by means of an intracardiacal injection. The dosage of the triglycerides is carried out on the serum using the enzymatic method described by […]. and […]. […] The percent decrease of the triglycerides has been calculated as above.

The subject of experiment [3] is total cholesterol in rats fed with hypercholesterolemic diet. The experiment in a line: Test B: variation of total cholesterol in rats fed with Tensho et al. hypercholesterolemic diet. As to conditions: Table 3, oral. From the text:
(B) Determination of the variation of total cholesterol in rats fed with Greenberg […] diet modified according to Tensho et al.
The rats are subdivided in 3 experimental groups:
(1) control group, normally fed;
(2) diet group, fed only with the Tensho diet;
(3) treated group, fed with the Tensho diet and treated with the compounds to be tested.
At the beginning of the eighth day the rats, fasted since the previous evenging, are sacrified under ethereal anaesthesia by means of an intracardiacal injection. […] The percent decrease of the hematic cholesterol is calculated by means of the following formula: [formula] Ch=cholesterol

Like-named read-outs stand apart in the source and are kept apart here.

Consider `CC(C)(CO)CCCCCCCCC(C)(C)CO` [Example 18], for which, in experiment [1] (Table 2, acids and alcohols), the change in vivo at 50 mg/kg is -93.4%.

On to `CCCC(C)(CCCCCCCCC(C)(CCC)C(=O)O)C(=O)O` (stereo not drawn) [Example 21], for which the change in vivo at 50 mg/kg in experiment [1] (Table 2, acids and alcohols) is -64.3%.

On to `CCCC(C)(CO)CCCCCCCCC(C)(CO)CCC` (stereo not drawn) [Example 22], for which, in experiment [1] (Table 2, acids and alcohols), the change in vivo at 50 mg/kg was -45.2%. In the case of `CCCCC(C)(CCCCCCCCC(C)(CCCC)C(=O)O)C(=O)O` (stereo not drawn) [Example 23], the change in vivo at 50 mg/kg in experiment [1] (Table 2, acids and alcohols) was -62.4%.

Take `CCC(C)(CCCCCCCCC(C)(CC)COC(=O)c1cccnc1)COC(=O)c1cccnc1` (stereo not drawn) [Table 1 No. 10, 2,11-diethyl-2,11-dimethyl-1,12-dodecanediol dinicotinate]: in experiment [1] (Table 1, esters), the change in vivo at 50 mg/kg is -66%. Consider `CCC(C)(CCCCCCC(C)(CC)COC(=O)c1cccnc1)COC(=O)c1cccnc1` (stereo not drawn) [Table 1 No. 4, 2,9-diethyl-2,9-dimethyl-1,10-decanediol dinicotinate], for which, in experiment [1] (Table 1, esters), the change in vivo at 50 mg/kg is -87%. The same measure, in the same setting: to `CCCCC(C)(CCCCCCC(C)(CCCC)COC(=O)c1cccnc1)COC(=O)c1cccnc1` (stereo not drawn) [Table 1 No. 6, 2,9-di-n-butyl-2,9-dimethyl-1,10-decanediol dinicotinate] belongs -85.6%. Turning to `CC(C)(CO)CCCCCCC(C)(C)CO` [Table 2 No. 6, 2,2,9,9-tetramethyl-1,10-decanediol], in experiment [1] (Table 2, acids and alcohols), the change in vivo at 50 mg/kg is -94%. As to `CC(C)(CCCCCCC(C)(C)C(=O)O)C(=O)O` [Table 2 No. 5], in experiment [1] (Table 2, acids and alcohols), the change in vivo at 50 mg/kg is -91.8%. For `CC(C)(CCCCCCCCC(C)(C)C(=O)O)C(=O)O` [Example 17], the change in vivo at 50 mg/kg in experiment [1] (Table 2, acids and alcohols) is -97.5%. Consider `CCCCC(C)(CO)CCCCCCCCC(C)(CO)CCCC` (stereo not drawn) [Example 24], for which the change in vivo at 50 mg/kg in experiment [1] (Table 2, acids and alcohols) is -60.2%. Still for that read-out and setting: to `CC(C)(CCCCCCCC(C)(C)C(=O)O)C(=O)O` [Example 13] belongs -91.8%. On the same count and under the same terms, the value for `CC(C)(CO)CCCCCCCC(C)(C)CO` [Example 14] was -92%. `CC(C)(CCCCCCCCC(C)(C)COC(=O)c1cccnc1)COC(=O)c1cccnc1` [Example 5, 2,2,11,11-Tetramethyl-1,12-dodecanediol dinicotinate]: the change in vivo at 50 mg/kg in experiment [1] (Table 1, esters) is -98%. Further, in experiment [1], the “ED50, Test diet of fructose” value is given as 0.0026 mmole/Kg/os/die. The “ED50, Test diet of ethanol” value in experiment [2] was 0.0707 mmole/Kg/os/die. For the same compound, the “ED50, Test diet of Tensho” value in experiment [3] stood at 0.0880 mmole/Kg/os/die. For `CCC(C)(CCCCCCCC(C)(CC)C(=O)O)C(=O)O` (stereo not drawn) [Example 15], the change in vivo at 50 mg/kg in experiment [1] (Table 2, acids and alcohols) was -97%. For `O=C(O)c1cccnc1` [Nicotinic acid, reference compound], the “ED50, Test diet of fructose” value in experiment [1] amounted to 0.4760 mmole/Kg/os/die. Also, in experiment [2], the “ED50, Test diet of ethanol” value stood at 0.4800 mmole/Kg/os/die. In addition, the “ED50, Test diet of Tensho” value in experiment [3] is 0.3020 mmole/Kg/os/die. Take `CC(C)(CCCCCC(C)(C)C(=O)O)C(=O)O` [Table 2 No. 3]: the “ΔTGhematic (percent decrease of the hematic triglycerides)” value in experiment [1] (Table 2, acids and alcohols) is “inactive”. For the compound `CC(C)(CCCCC(C)(C)C(=O)O)C(=O)O` [Table 2 No. 1], the “ΔTGhematic (percent decrease of the hematic triglycerides)” value in experiment [1] (Table 2, acids and alcohols) is “inactive”. In the case of `CCC(C)(CCCCCCCC(C)(CC)COC(=O)c1cccnc1)COC(=O)c1cccnc1` (stereo not drawn) [Table 1 No. 8, 2,10-diethyl-2,10-dimethyl-1,11-undecanediol dinicotinate], in experiment [1] (Table 1, esters), the change in vivo at 50 mg/kg was -98%.

Take `CC(C)(CCCCCCCC(C)(C)COC(=O)c1cccnc1)COC(=O)c1cccnc1` [Example 4, 2,2,10,10-Tetramethyl-1,11-undecanediol dinicotinate]: in experiment [1] (Table 1, esters), the change in vivo at 50 mg/kg was -92.5%. Moreover, the “ED50, Test diet of fructose” value in experiment [1] is on record as 0.0029 mmole/Kg/os/die. In addition, in experiment [2], the “ED50, Test diet of ethanol” value is recorded as 0.0718 mmole/Kg/os/die. The “ED50, Test diet of Tensho” value in experiment [3] is 0.0891 mmole/Kg/os/die. With `CCCC(C)(CCCCCCC(C)(CCC)COC(=O)c1cccnc1)COC(=O)c1cccnc1` (stereo not drawn) [Table 1 No. 5, 2,9-dimethyl-2,9-di-n-propyl-1,10-decanediol dinicotinate], the change in vivo at 50 mg/kg in experiment [1] (Table 1, esters) was -90%. With `CCCC(C)(CCCCCCCCC(C)(CCC)COC(=O)c1cccnc1)COC(=O)c1cccnc1` (stereo not drawn) [Table 1 No. 11, 2,11-dimethyl-2,11-di-n-propyl-1,12-dodecanediol dinicotinate], the change in vivo at 50 mg/kg in experiment [1] (Table 1, esters) is -65.8%. As to `CCC(C)(CO)CCCCCCC(C)(CC)CO` (stereo not drawn) [Example 8, 2,9-Diethyl-2,9-dimethyl-1,10-decanediol], the change in vivo at 50 mg/kg in experiment [1] (Table 2, acids and alcohols) was -81.5%. As to `CC(C)(CCCCCCC(C)(C)COC(=O)c1cccnc1)COC(=O)c1cccnc1` [Example 3, 2,2,9,9-Tetramethyl-1,10-decanediol dinicotinate], in experiment [1] (Table 1, esters), the change in vivo at 50 mg/kg was -99%. Also, the “ED50, Test diet of fructose” value in experiment [1] is 0.0034 mmole/Kg/os/die. Further, the “ED50, Test diet of ethanol” value in experiment [2] is reported as 0.0727 mmole/Kg/os/die. In addition, the “ED50, Test diet of Tensho” value in experiment [3] came to 0.0900 mmole/Kg/os/die. Regarding `CCCC(C)(CCCCCCC(C)(CCC)C(=O)O)C(=O)O` (stereo not drawn) [Table 2 No. 9], in experiment [1] (Table 2, acids and alcohols), the change in vivo at 50 mg/kg is -89.5%. `CCCCC(C)(CO)CCCCCCC(C)(CO)CCCC` (stereo not drawn) [Table 2 No. 12, 2,9-di-n-butyl-2,9-dimethyl-1,10-decanediol]: in experiment [1] (Table 2, acids and alcohols), the change in vivo at 50 mg/kg was -58.7%. The same measure, in the same setting: the value for `CCC(C)(CO)CCCCCCCCC(C)(CC)CO` (stereo not drawn) [Example 20] was -50.1%; that for `CCC(C)(CO)CCCCCCCC(C)(CC)CO` (stereo not drawn) [Example 16] was -90%.

With `CC(C)(CO)CCCCC(C)(C)CO` [Table 2 No. 2, 2,2,7,7-tetramethyl-1,8-octanediol], the “ΔTGhematic (percent decrease of the hematic triglycerides)” value in experiment [1] (Table 2, acids and alcohols) is “inactive”. Consider `CCCCC(C)(CCCCCCCCC(C)(CCCC)COC(=O)c1cccnc1)COC(=O)c1cccnc1` (stereo not drawn) [Table 1 No. 12, 2,11-di-n-butyl-2,11-dimethyl-1,12-dodecanediol dinicotinate], for which, in experiment [1] (Table 1, esters), the change in vivo at 50 mg/kg was -59.1%. As to `CC(C)(CO)CCCCCC(C)(C)CO` [Table 2 No. 4, 2,2,8,8-tetramethyl-1,9-nonanediol], the “ΔTGhematic (percent decrease of the hematic triglycerides)” value in experiment [1] (Table 2, acids and alcohols) is “inactive”. For the compound `CC(C)(CCCCC(C)(C)COC(=O)c1cccnc1)COC(=O)c1cccnc1` [Example 1, 2,2,7,7-Tetramethyl-1,8-octanediol dinicotinate], the change in vivo at 50 mg/kg in experiment [1] (Table 1, esters) was -60%. Consider `CC(C)(CCCCCC(C)(C)COC(=O)c1cccnc1)COC(=O)c1cccnc1` [Example 2, 2,2,8,8-Tetramethyl-1,9-nonanediol dinicotinate], for which the change in vivo at 50 mg/kg in experiment [1] (Table 1, esters) was -80%. On to `CCC(C)(CCCCCCC(C)(CC)C(=O)O)C(=O)O` (stereo not drawn) [Example 7, 2,9-Diethyl-2,9-dimethyl-1,10-decanedioic acid], for which the change in vivo at 50 mg/kg in experiment [1] (Table 2, acids and alcohols) is -82.1%. Turning to `CCCC(C)(CO)CCCCCCC(C)(CO)CCC` (stereo not drawn) [Table 2 No. 10, 2,9-dimethyl-2,9-di-n-propyl-1,10-decanediol], in experiment [1] (Table 2, acids and alcohols), the change in vivo at 50 mg/kg is -88.3%. Consider `CCCCC(C)(CCCCCCC(C)(CCCC)C(=O)O)C(=O)O` (stereo not drawn) [Table 2 No. 11], for which the change in vivo at 50 mg/kg in experiment [1] (Table 2, acids and alcohols) was -65.4%. On to `CCC(C)(CCCCCCCCC(C)(CC)C(=O)O)C(=O)O` (stereo not drawn) [Example 19], for which the change in vivo at 50 mg/kg in experiment [1] (Table 2, acids and alcohols) is -57.4%.

(Values after patent US4454145A, “Nicotinates of alkanediols having hypolipidaemic activity and pharmaceutical compositions containing them” (Alfa Farmaceutici S.p.A., priority 1981, dated 1984).)
